In PubChem BioAssay (NCI) one finds TGI data, which are given here for four compounds.

Some test systems named below: KM20L2 colon; RXF-631 renal; SNB-78 CNS; DMS 273 small cell lung; HOP-18 NSCLC.
Common to all, as to assay: NCI-60 cell line screen, 48 h

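96-well plates; 48 h exposure; 5 concentrations. Endpoints by linear interpolation between flanking doses. Not reached: highest tested concentration assigned. The concentration for full growth arrest is given as TGI.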

Take `COC1CC(CC2CCC(C)C(C(C)C(=O)O)O2)OC2(OC(C)(C3CCC(C)(C4OC(C5OC(O)(CO)C(C)CC5C)CC4C)O3)CC2C)C1C` (stereo not given): the TGI with KM20L2 colon was 11 µM; in the assay on RXF-631 renal, 12.9 µM; in the assay on SNB-78 CNS, 68.3 µM; in the assay on DMS 273 small cell lung it was 10.4 µM; in the assay with HOP-18 NSCLC it was 11.5 µM.
On the same counts, the results for `COc1ccc(C2c3cc4c(cc3OC(O)(CO)C2C(=O)O)OCO4)cc1` (stereo not given) (tested in a mixture with another compound) are above 100 µM, 42.9 µM, 59 µM, 17.7 µM and above 100 µM.
For `CC(=O)Oc1ccc(CO)cc1OC(C)=O`, in that order: above 100 µM, above 100 µM, above 100 µM, above 100 µM and above 100 µM.
For `CCOC(=O)C(=O)NCCCN1CCOCC1`, in that order: above 100 µM, above 100 µM, above 100 µM, above 100 µM and above 100 µM.
